Experiments:
[1] = test system: ATCC VR-1520 (H2N1) Human influenza virus
[2] = Solubilization of dyes in aqueous polymer solution vs water, TLC spot comparison; settings: for concentration in 50 mg/ml polymer: 50 mg/ml aqueous C16-Polymer A (Example 1), approximate, from TLC spot intensity

Structure (SMILES): COC1(C(=O)O)CC(O)C(N)C(C(O)C(O)CO)O1 (stereo not drawn) [positive control, neuraminic acid β-methyl glycoside]
- body weight loss ([1]; 7 days): −9.8%
- increase in survival time ([1]; mouse, in vivo): 2.94 h

Structure (SMILES): Cc1ccccc1/N=N/c1ccc(/N=N/c2c(O)ccc3ccccc23)c(C)c1 [Sudan IV]
- concentration in 50 mg/ml polymer [2]: approximately 0.2 mg/ml
- concentration in H2O ([2]; deionized water, unbuffered, room temperature): 0 ng/mL

Structure (SMILES): O=C1OC2(c3cc(Cl)c(O)cc3Oc3cc(O)c(Cl)cc32)c2ccccc21 [Dichlorofluorescein, dichlorofluorescein]
- concentration in 50 mg/ml polymer [2]: approximately 5 mg/ml
- solubility ([2]; deionized water (unbuffered), water, thermodynamic from solid): ≥ 10 µg/mL
